Converted amounts (≈) assume the structure as drawn. Where a name gives a salt, the structure may show the parent alone. Read-outs that look alike come from different tables or passages of the source.
Columns and labels:
Assay in all cases: Bacterial growth minimal inhibitory concentration, microdilution in cation-adjusted Mueller-Hinton Broth (CLSI M7-A7)
Type in all cases: cell-based
[1] = test system: E. coli ATCC25922; details: Escherichia coli
Description: (§1) Minimal Inhibitory Concentrations (MICs; mg/L) were determined in cation-adjusted Mueller-Hinton Broth by a microdilution method following the description given in “Methods for Dilution Antimicrobial Susceptibility Tests for Bacteria that Grow Aerobically”, Approved standard, 7th ed., Clinical and Laboratory Standards Institute (CLSI) Document M7-A7, Wayne, Pa., U.S.A. (2006).
(§2) All Example compounds were tested against several Gram-positive and Gram-negative bacteria. […] K. pneumoniae A-651 is a multiply-resistant strain (in particular quinolone-resistant), while E. coli ATCC25922 and P. aeruginosa ATCC27853 are quinolone-sensitive strains.

[2] = test system: K. pneumoniae A-651; details: Klebsiella pneumoniae
Description: as §1, §2

[3] = test system: P. aeruginosa ATCC27853; details: Pseudomonas aeruginosa
Description: as §1, §2

[4] = ATCC25922, quinolone-sensitive strain, read-out: MIC for E. coli ATCC25922
[5] = A651, multiply-resistant strain (in particular quinolone-resistant), read-out: MIC for K. Pneumoniae A-651
[6] = ATCC27853, quinolone-sensitive strain, read-out: MIC for P. aeruginosa ATCC27853

SMILES	MIC [1, 4]	MIC [2, 5]	MIC [3, 6]	MIC ([1]; ATCC25922, read-out: MIC for E. coli ATCC25922)	MIC ([2]; A651, read-out: MIC for K. Pneumoniae A-651)	MIC ([3]; ATCC27853, read-out: MIC for P. aeruginosa ATCC27853)
C[C@@](CCn1cnc2cc(C#CC#CC3(C(O)CO)CC3)ccc2c1=O)(C(=O)NO)S(C)(=O)=O (mixture of isomers) [Example 19, (2R)-4-(7-((1-((RS)-1,2-dihydroxyethyl)cyclopropyl)buta-1,3-diyn-1-yl)-4-oxoquinazolin-3(4H)-yl)-N-hydroxy-2-methyl-2-(methylsulfonyl)butanamide]	8 µg/mL	32 µg/mL	8 µg/mL			
CC(CCn1cnc2cc(-c3ccc(OCCCN4CCOCC4)cc3F)ccc2c1=O)(C(=O)NO)S(C)(=O)=O.O=CO (racemic) [RE1, (RS)-4-(7-(2-fluoro-4-(3-morpholinopropoxy)phenyl)-4-oxoquinazolin-3(4H)-yl)-N-hydroxy-2-methyl-2-(methylsulfonyl)butanamide formate]	1 µg/mL	2 µg/mL	16 µg/mL			
CC(CCn1cnc2cc(-c3ccc(OCCCN4CCOCC4)cc3)ccc2c1=O)(C(=O)NO)S(C)(=O)=O.O=CO (racemic) [RE2, (RS)-N-hydroxy-2-methyl-2-(methylsulfonyl)-4-(7-(4-(3-morpholinopropoxy)phenyl)-4-oxoquinazolin-3(4H)-yl)butanamide formate]	1 µg/mL	2 µg/mL	8 µg/mL			
CC(CCn1cnc2cc(-c3ccc(OCCN4CCOCC4)cc3F)ccc2c1=O)(C(=O)NO)S(C)(=O)=O.O=CO (racemic) [RE3, (RS)-4-(7-(2-fluoro-4-(2-morpholinoethoxy)phenyl)-4-oxoquinazolin-3(4H)-yl)-N-hydroxy-2-methyl-2-(methylsulfonyl)butanamide formate]	2 µg/mL	4 µg/mL	16 µg/mL			
COc1cccc(-c2ccc3c(=O)n(CCC(C)(C(=O)NO)S(C)(=O)=O)cnc3c2)c1F (racemic) [RE4, (RS)-4-(7-(2-fluoro-3-methoxyphenyl)-4-oxoquinazolin-3(4H)-yl)-N-hydroxy-2-methyl-2-(methylsulfonyl)butanamide]	0.125 µg/mL (≈ 0.27 µM)	≤ 0.063 µg/mL	8 µg/mL (≈ 17.3 µM)			
COc1ccc(-c2ccc3c(=O)n(CCC(C)(C(=O)NO)S(C)(=O)=O)cnc3c2)cc1F (racemic) [RE5, (RS)-4-(7-(3-fluoro-4-methoxyphenyl)-4-oxoquinazolin-3(4H)-yl)-N-hydroxy-2-methyl-2-(methylsulfonyl)butanamide]	0.25 µg/mL (≈ 0.539 µM)	1 µg/mL (≈ 2.16 µM)	16 µg/mL (≈ 34.5 µM)			
CN(C)c1ccc(-c2ccc3c(=O)n(CCC(C)(C(=O)NO)S(C)(=O)=O)cnc3c2)cc1 (racemic) [RE6, (RS)-4-(7-(4-(dimethylamino)phenyl)-4-oxoquinazolin-3(4H)-yl)-N-hydroxy-2-methyl-2-(methylsulfonyl)butanamide]	0.125 µg/mL (≈ 0.273 µM)	0.125 µg/mL (≈ 0.273 µM)	16 µg/mL (≈ 34.9 µM)			
CC(CCn1cnc2cc(-c3ccc(CO)cc3)ccc2c1=O)(C(=O)NO)S(C)(=O)=O (racemic) [RE7, (RS)-N-hydroxy-4-(7-(4-(hydroxymethyl)phenyl)-4-oxoquinazolin-3(4H)-yl)-2-methyl-2-(methylsulfonyl)butanamide]	2 µg/mL (≈ 4.49 µM)	8 µg/mL (≈ 18 µM)	16 µg/mL (≈ 35.9 µM)			
CC(CCn1cnc2cc(-c3ccc(CN4CCOCC4)cc3)ccc2c1=O)(C(=O)NO)S(C)(=O)=O.O=CO (racemic) [RE8, (RS)-N-hydroxy-2-methyl-2-(methylsulfonyl)-4-(7-(4-(morpholinomethyl)phenyl)-4-oxoquinazolin-3(4H)-yl)butanamide formate]	1 µg/mL	2 µg/mL	16 µg/mL			
CC(CCn1cnc2cc(-c3ccccc3)c(F)cc2c1=O)(C(=O)NO)S(C)(=O)=O (racemic) [RE9, (RS)-4-(6-fluoro-4-oxo-7-phenylquinazolin-3(4H)-yl)-N-hydroxy-2-methyl-2-(methylsulfonyl)butanamide]	0.25 µg/mL (≈ 0.577 µM)	≤ 0.063 µg/mL	16 µg/mL (≈ 36.9 µM)			
CC(CCn1cnc2cc(C#Cc3ccc(CO)cc3)ccc2c1=O)(C(=O)NO)S(C)(=O)=O (racemic) [RE10, (RS)-N-hydroxy-4-(7-((4-(hydroxymethyl)phenyl)ethynyl)-4-oxoquinazolin-3(4H)-yl)-2-methyl-2-(methylsulfonyl)butanamide]	0.25 µg/mL (≈ 0.532 µM)	1 µg/mL (≈ 2.13 µM)	16 µg/mL (≈ 34.1 µM)			
CC(CCn1cnc2cc(C#Cc3ccc(C4(O)COC4)cc3)ccc2c1=O)(C(=O)NO)S(C)(=O)=O (racemic) [RE11, (RS)-N-hydroxy-4-(7-((4-(3-hydroxyoxetan-3-yl)phenyl)ethynyl)-4-oxoquinazolin-3(4H)-yl)-2-methyl-2-(methylsulfonyl)butanamide]	1 µg/mL (≈ 1.95 µM)	1 µg/mL (≈ 1.95 µM)	8 µg/mL (≈ 15.6 µM)			
CC(CCn1cnc2cc(C#Cc3ccc(CN4CCOCC4)cc3)ccc2c1=O)(C(=O)NO)S(C)(=O)=O.O=CO (racemic) [RE12, (RS)-N-hydroxy-2-methyl-2-(methylsulfonyl)-4-(7-((4-(morpholinomethyl)phenyl)ethynyl)-4-oxoquinazolin-3(4H)-yl)butanamide formate]	0.5 µg/mL	0.5 µg/mL	16 µg/mL			
C[C@@](CCn1cnc2cc(C#CC#C[C@@]3(F)C[C@@H]3CO)ccc2c1=O)(C(=O)NO)S(C)(=O)=O (relative stereo) [Example 30, (R)-4-(7-(((1R*,2R*)-1-fluoro-2-(hydroxymethyl)cyclopropyl)buta-1,3-diyn-1-yl)-4-oxoquinazolin-3(4H)-yl)-N-hydroxy-2-methyl-2-(methylsulfonyl)butanamide]	0.25 µg/mL (≈ 0.526 µM)	0.5 µg/mL (≈ 1.05 µM)	1 µg/mL (≈ 2.1 µM)			
C[C@@](CCn1cnc2cc(C#CC#C[C@H]3C[C@]3(F)CO)ccc2c1=O)(C(=O)NO)S(C)(=O)=O (relative stereo) [Example 33, (R)-4-(7-(((1R*,2R*)-2-fluoro-2-(hydroxymethyl)cyclopropyl)buta-1,3-diyn-1-yl)-4-oxoquinazolin-3(4H)-yl)-N-hydroxy-2-methyl-2-(methylsulfonyl)butanamide]	0.25 µg/mL (≈ 0.526 µM)	0.5 µg/mL (≈ 1.05 µM)	0.5 µg/mL (≈ 1.05 µM)			
COc1ccc(-c2ccc3c(=O)n(CC[C@](C)(C(=O)NO)S(C)(=O)=O)cnc3c2)c(F)c1 (single isomer, unassigned) [Example 1]	≤ 0.063 µg/mL	0.25 µg/mL (≈ 0.539 µM)	4 µg/mL (≈ 8.63 µM)			
C[C@@](CCn1cnc2cc(-c3ccccc3)ccc2c1=O)(C(=O)NO)S(C)(=O)=O (single isomer, unassigned) [Example 2]	0.25 µg/mL (≈ 0.602 µM)	≤ 0.063 µg/mL	8 µg/mL (≈ 19.3 µM)			
C[C@@](CCn1cnc2cc(C#CC#C[C@H]3C[C@@H]3CO)ccc2c1=O)(C(=O)NO)S(C)(=O)=O [Example 3, (R)-N-hydroxy-4-(7-(((1S,2S)-2-(hydroxymethyl)cyclopropyl)buta-1,3-diyn-1-yl)-4-oxoquinazolin-3(4H)-yl)-2-methyl-2-(methylsulfonyl)butanamide]	0.125 µg/mL (≈ 0.273 µM)	0.5 µg/mL (≈ 1.09 µM)	1 µg/mL (≈ 2.19 µM)			
C[C@@](CCn1cnc2cc(C#CC#CC3(O)COC3)ccc2c1=O)(C(=O)NO)S(C)(=O)=O [Example 4, (R)-N-hydroxy-4-(7-((3-hydroxyoxetan-3-yl)buta-1,3-diyn-1-yl)-4-oxoquinazolin-3(4H)-yl)-2-methyl-2-(methylsulfonyl)butanamide]	4 µg/mL (≈ 8.71 µM)	4 µg/mL (≈ 8.71 µM)	4 µg/mL (≈ 8.71 µM)			
C[C@@](CCn1cnc2cc(C#CC#C[C@@H]3C[C@H]3CO)ccc2c1=O)(C(=O)NO)S(C)(=O)=O [Example 5, (R)-N-hydroxy-4-(7-(((1R,2R)-2-(hydroxymethyl)cyclopropyl)buta-1,3-diyn-1-yl)-4-oxoquinazolin-3(4H)-yl)-2-methyl-2-(methylsulfonyl)butanamide]	≤ 0.063 µg/mL	0.25 µg/mL (≈ 0.546 µM)	1 µg/mL (≈ 2.19 µM)			
C[C@@](CCn1cnc2cc(C#CC#CC3(CO)CC3)ccc2c1=O)(C(=O)NO)S(C)(=O)=O [Example 6, (R)-N-hydroxy-4-(7-((1-(hydroxymethyl)cyclopropyl)buta-1,3-diyn-1-yl)-4-oxoquinazolin-3(4H)-yl)-2-methyl-2-(methylsulfonyl)butanamide]	0.25 µg/mL (≈ 0.546 µM)	1 µg/mL (≈ 2.19 µM)	2 µg/mL (≈ 4.37 µM)			
CC(C)(N)C#CC#Cc1ccc2c(=O)n(CC[C@](C)(C(=O)NO)S(C)(=O)=O)cnc2c1 [Example 7, (R)-4-(7-(5-amino-5-methylhexa-1,3-diyn-1-yl)-4-oxoquinazolin-3(4H)-yl)-N-hydroxy-2-methyl-2-(methylsulfonyl)butanamide formate]				1 µg/mL	4 µg/mL	2 µg/mL
C[C@@](CCn1cnc2cc(C#Cc3ccc(CCO)cc3)ccc2c1=O)(C(=O)NO)S(C)(=O)=O [Example 8, (R)-N-hydroxy-4-(7-((4-(2-hydroxyethyl)phenyl)ethynyl)-4-oxoquinazolin-3(4H)-yl)-2-methyl-2-(methylsulfonyl)butanamide]	0.125 µg/mL (≈ 0.259 µM)	0.25 µg/mL (≈ 0.517 µM)	4 µg/mL (≈ 8.27 µM)			
C[C@@](CCn1cnc2cc(C#CC#C[C@H]3C[C@@H]3CO)c(F)cc2c1=O)(C(=O)NO)S(C)(=O)=O [Example 9, (R)-4-(6-fluoro-7-(((1S,2S)-2-(hydroxymethyl)cyclopropyl)buta-1,3-diyn-1-yl)-4-oxoquinazolin-3(4H)-yl)-N-hydroxy-2-methyl-2-(methylsulfonyl)butanamide]	0.125 µg/mL (≈ 0.263 µM)	0.25 µg/mL (≈ 0.526 µM)	1 µg/mL (≈ 2.1 µM)			

Reference: patent US9796686B2, “Antibacterial quinazoline-4(3H)-one derivatives” (priority 2014, dated 2017)
